Experimental data as given in PubChem BioAssay AID256 (DTP/NCI, 2004).
“And” between values parts separate entries of the source, which are not always exact repeats. Equal entries are not always repeated. Toxic doses and inconclusive results are not listed.

System: CD2F1 mice, L1210 leukemia ip, survival T/C
Assay: NCI In Vivo Anticancer Drug Screen. Data for tumor model L1210 Leukemia (intraperitoneal) in CD2F1 (CDF1) mice
Conditions: higher = longer survival
Summary of the method: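 Ratio T/C, where T is the treated-group value and C the vehicle-dosed control value, from mice implanted with a transplantable tumor.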

[1] = endpoint: mean survival time, dose: 100.0 mg/kg/injection, schedule: Q04DX003 (ip), vehicle: saline with Tween-80
[2] = endpoint: mean survival time, dose: 200.0 mg/kg/injection, schedule: Q04DX003 (ip), vehicle: saline with Tween-80
[3] = endpoint: mean survival time, dose: 400.0 mg/kg/injection, schedule: Q04DX003 (ip), vehicle: saline with Tween-80
[4] = endpoint: mean survival time, dose: 100.0 mg/kg/injection, schedule: Q01DX001 (ip), vehicle: saline
[5] = endpoint: mean survival time, dose: 200.0 mg/kg/injection, schedule: Q01DX001 (ip), vehicle: saline
[6] = endpoint: mean survival time, dose: 400.0 mg/kg/injection, schedule: Q01DX001 (ip), vehicle: saline
[7] = endpoint: mean survival time, dose: 100.0 mg/kg/injection, schedule: Q01DX009 (ip), vehicle: saline with Tween-80
[8] = endpoint: mean survival time, dose: 200.0 mg/kg/injection, schedule: Q01DX009 (ip), vehicle: saline with Tween-80
[9] = endpoint: mean survival time, dose: 75.0 mg/kg/injection, schedule: Q01DX001 (ip), vehicle: saline
[10] = endpoint: mean survival time, dose: 150.0 mg/kg/injection, schedule: Q01DX001 (ip), vehicle: saline
[11] = endpoint: mean survival time, dose: 100.0 mg/kg/injection, schedule: Q04DX002 (ip), vehicle: saline with Tween-80
[12] = endpoint: mean survival time, dose: 200.0 mg/kg/injection, schedule: Q04DX002 (ip), vehicle: saline with Tween-80
[13] = endpoint: mean survival time, dose: 400.0 mg/kg/injection, schedule: Q04DX002 (ip), vehicle: saline with Tween-80
[14] = endpoint: mean survival time, dose: 400.0 mg/kg/injection, schedule: Q01DX009 (ip), vehicle: saline with Tween-80

SMILES: CCOP(=O)(OCC)C(C(C)C)N(C)C (stereo unspecified)
- T/C (endpoint: mean survival time, dose: 100.0 mg/kg/injection, schedule: Q01DX001 (ip), vehicle: saline with Tween-80): 103 % of control
- T/C (endpoint: mean survival time, dose: 200.0 mg/kg/injection, schedule: Q01DX001 (ip), vehicle: saline with Tween-80): 101 % of control
- T/C (endpoint: mean survival time, dose: 400.0 mg/kg/injection, schedule: Q01DX001 (ip), vehicle: saline with Tween-80): 98 % of control

SMILES: C=CC[n+]1cccc2ccccc21
- T/C [1]: 111 % of control

SMILES: CCOC(=O)C(Br)(C(=O)OCC)C(c1ccccc1)c1ccccc1
- T/C [1]: 98 % of control
- T/C [2]: 89 % of control
- T/C [3]: 93 % of control

SMILES: CCCCCCCCCC(=O)CCCCCCC
- T/C (endpoint: mean survival time, dose: 100.0 mg/kg/injection, schedule: Q04DX003 (ip), vehicle: other): 105 % of control
- T/C (endpoint: mean survival time, dose: 200.0 mg/kg/injection, schedule: Q04DX003 (ip), vehicle: other): 92 % of control
- T/C (endpoint: mean survival time, dose: 400.0 mg/kg/injection, schedule: Q04DX003 (ip), vehicle: other): 107 % of control

SMILES: CC/C=C(\CC(=O)OCC)C(=O)OCC
- T/C [1]: 102 % of control
- T/C [2]: 106 % of control
- T/C [3]: 101 % of control

SMILES: O=C1c2ccccc2C(=O)c2cc(NS(=O)(=O)C(F)(F)F)ccc21
- T/C [4]: 96 % of control
- T/C [5]: 100 % of control

SMILES: O=C1[O][Hg][c]2cc([N+](=O)[O-])cc3cccc1c23.O=C1[O][Hg][c]2cccc3cc([N+](=O)[O-])cc1c23
- T/C [4]: 94 % of control
- T/C [5]: 94 % of control
- T/C [6]: 94 % of control

SMILES: CCCC(C)CC(=CC(C)(C)C)CC(C)CCC (stereo unspecified)
- T/C (endpoint: mean survival time, dose: 50.0 mg/kg/injection, schedule: Q01DX009 (ip), vehicle: saline with Tween-80): 96 % of control
- T/C [7]: 100 % of control
- T/C [8]: 100 % of control

SMILES: COc1ccc(CCN)cc1O
- T/C [9]: 98 % of control
- T/C [10]: 98 % of control
- T/C (endpoint: mean survival time, dose: 300.0 mg/kg/injection, schedule: Q01DX001 (ip), vehicle: saline): 98 % of control

SMILES: CCN(CC)C(=S)Nc1ccc(Cl)cc1
- T/C [11]: 102 % of control
- T/C [12]: 102 % of control
- T/C [13]: 102 % of control

SMILES: CC(=O)Oc1c(Br)cc(Br)cc1-c1ccccc1
- T/C [4]: 95 % of control
- T/C (endpoint: mean survival time, dose: 100.0 mg/kg/injection, schedule: Q04DX003 (ip), vehicle: saline): 117 % of control
- T/C [5]: 94 % of control
- T/C (endpoint: mean survival time, dose: 200.0 mg/kg/injection, schedule: Q04DX003 (ip), vehicle: saline): 105 % of control
- T/C [6]: 101 % of control
- T/C (endpoint: mean survival time, dose: 400.0 mg/kg/injection, schedule: Q04DX003 (ip), vehicle: saline): 114 % of control

SMILES: CCCCc1ccc(N=Cc2ccc(C=Nc3ccc(CCCC)cc3)cc2)cc1
- T/C [1]: 94 % of control
- T/C [2]: 89 % of control
- T/C [3]: 89 % of control

SMILES: CCC1(O)C(=O)OCc2c1cc1n(c2=O)Cc2cc3cc([N+](=O)[O-])ccc3nc2-1 (stereo unspecified)
- T/C (endpoint: median survival time, dose: 3.63 mg/kg/injection, schedule: Q04DX002 (ip), vehicle: saline with Tween-80): 185 % of control
- T/C (endpoint: median survival time, dose: 7.25 mg/kg/injection, schedule: Q04DX002 (ip), vehicle: saline with Tween-80): 233 % of control
- T/C (endpoint: median survival time, dose: 7.5 mg/kg/injection, schedule: Q04DX002 (ip), vehicle: saline with Tween-80): 183 % of control
- T/C (endpoint: median survival time, dose: 15.5 mg/kg/injection, schedule: Q04DX002 (ip), vehicle: saline with Tween-80): 219 % of control and 103 % of control

SMILES: CC1=CC(C)(N=[N+]=[N-])CC(C)(C)C1 (stereo unspecified)
- T/C (endpoint: mean survival time, dose: 37.5 mg/kg/injection, schedule: Q01DX009 (ip), vehicle: saline): 97 % of control
- T/C (endpoint: mean survival time, dose: 75.0 mg/kg/injection, schedule: Q01DX009 (ip), vehicle: saline): 97 % of control

SMILES: O=c1[nH]c(=O)n(C2OC(CO)C(O)C(O)C2O)cc1F (stereo unspecified)
- T/C (endpoint: mean survival time, dose: 12.5 mg/kg/injection, schedule: Q01DX005 (ip), vehicle: water): 105 % of control
- T/C (endpoint: mean survival time, dose: 25.0 mg/kg/injection, schedule: Q01DX005 (ip), vehicle: water): 95 % of control
- T/C (endpoint: mean survival time, dose: 50.0 mg/kg/injection, schedule: Q01DX005 (ip), vehicle: water): 101 % of control
- T/C (endpoint: mean survival time, dose: 100.0 mg/kg/injection, schedule: Q01DX005 (ip), vehicle: water): 103 % of control
- T/C (endpoint: mean survival time, dose: 200.0 mg/kg/injection, schedule: Q01DX005 (ip), vehicle: water): 94 % of control

SMILES: O=C(C(=C(c1ccccc1)c1ccccc1)c1ccccc1)c1ccccc1
- T/C [11]: 93 % of control
- T/C [12]: 96 % of control
- T/C [13]: 93 % of control

SMILES: S=C(Oc1ccc(Cl)cc1)Sc1ccc(Cl)cc1
- T/C (endpoint: mean survival time, dose: 100.0 mg/kg/injection, schedule: Q04DX002 (ip), vehicle: Klucel (hydroxypropylcellulose) (HPC)): 101 % of control
- T/C (endpoint: mean survival time, dose: 200.0 mg/kg/injection, schedule: Q04DX002 (ip), vehicle: Klucel (hydroxypropylcellulose) (HPC)): 89 % of control
- T/C (endpoint: mean survival time, dose: 400.0 mg/kg/injection, schedule: Q04DX002 (ip), vehicle: Klucel (hydroxypropylcellulose) (HPC)): 97 % of control

SMILES: O=C1Nc2ccc([N+](=O)[O-])c3c(C(=O)O)ccc1c23
- T/C [1]: 98 % of control
- T/C [2]: 104 % of control
- T/C [3]: 101 % of control

SMILES: O=C(NCc1ccccc1)C1C2CCC(C2)C1C(=O)NCc1ccccc1 (stereo unspecified)
- T/C [1]: 102 % of control
- T/C [2]: 102 % of control
- T/C [3]: 98 % of control

SMILES: O=C1c2ccccc2C(=O)N1Cc1ccccc1
- T/C [7]: 105 % of control
- T/C [8]: 100 % of control
- T/C [14]: 103 % of control

SMILES: CCN1CCC2OCOC2C1 (stereo unspecified)
- T/C [9]: 102 % of control
- T/C [10]: 102 % of control

SMILES: CCCN(CCC)c1ccc(C#N)cc1
- T/C (endpoint: mean survival time, dose: 100.0 mg/kg/injection, schedule: Q04DX003 (ip), vehicle: Klucel (hydroxypropylcellulose) (HPC)): 91 % of control
- T/C (endpoint: mean survival time, dose: 200.0 mg/kg/injection, schedule: Q04DX003 (ip), vehicle: Klucel (hydroxypropylcellulose) (HPC)): 92 % of control
- T/C (endpoint: mean survival time, dose: 400.0 mg/kg/injection, schedule: Q04DX003 (ip), vehicle: Klucel (hydroxypropylcellulose) (HPC)): 95 % of control

SMILES: COC(=O)c1ccccc1SSc1ccccc1C(=O)OC
- T/C [7]: 93 % of control
- T/C [8]: 98 % of control
- T/C [14]: 93 % of control

SMILES: Cc1c(NC(=O)Nc2ccc(C3=NCCCN3)cc2)cccc1NC(=O)Nc1ccc(C2=NCCCN2)cc1
- T/C (endpoint: mean survival time, dose: 125.0 mg/kg/injection, schedule: Q01DX Z (ip), vehicle: water): 162 % of control
- T/C (endpoint: mean survival time, dose: 250.0 mg/kg/injection, schedule: Q01DX Z (ip), vehicle: water): 177 % of control
- T/C (endpoint: mean survival time, dose: 500.0 mg/kg/injection, schedule: Q01DX Z (ip), vehicle: water): 224 % of control

SMILES: [Cu+2].[NH-]CC(=O)O.[NH-]CC(=O)O
- T/C (endpoint: mean survival time, dose: 5.0 mg/kg/injection, schedule: Q01DX009 (ip), vehicle: saline): 98 % of control
- T/C (endpoint: mean survival time, dose: 10.0 mg/kg/injection, schedule: Q01DX009 (ip), vehicle: saline): 104 % of control

SMILES: CC(=O)N(C)NC(=O)c1ccccn1
- T/C (endpoint: mean survival time, dose: 50.0 mg/kg/injection, schedule: Q01DX001 (ip), vehicle: water): 106 % of control
- T/C (endpoint: mean survival time, dose: 100.0 mg/kg/injection, schedule: Q01DX001 (ip), vehicle: water): 103 % of control
- T/C (endpoint: mean survival time, dose: 200.0 mg/kg/injection, schedule: Q01DX001 (ip), vehicle: water): 102 % of control
- T/C (endpoint: mean survival time, dose: 400.0 mg/kg/injection, schedule: Q01DX001 (ip), vehicle: water): 103 % of control

SMILES: OC(O)(C(F)(F)F)C(F)(F)F
- T/C (endpoint: mean survival time, dose: 50.0 mg/kg/injection, schedule: Q01DX005 (ip), vehicle: saline): 103 % of control
- T/C (endpoint: mean survival time, dose: 100.0 mg/kg/injection, schedule: Q01DX005 (ip), vehicle: saline): 91 % of control
- T/C (endpoint: mean survival time, dose: 100.0 mg/kg/injection, schedule: Q04DX002 (ip), vehicle: saline): 103 % of control
- T/C (endpoint: mean survival time, dose: 200.0 mg/kg/injection, schedule: Q04DX002 (ip), vehicle: saline): 109 % of control

SMILES: O=C(O)COc1ccc(Cl)cc1Cl
- T/C (endpoint: mean survival time, dose: 100.0 mg/kg/injection, schedule: Q04DX003 (ip), vehicle: saline sonified): 95 % of control
- T/C (endpoint: mean survival time, dose: 200.0 mg/kg/injection, schedule: Q04DX003 (ip), vehicle: saline sonified): 92 % of control
- T/C (endpoint: mean survival time, dose: 400.0 mg/kg/injection, schedule: Q04DX003 (ip), vehicle: saline sonified): 95 % of control

SMILES: CCOC(=O)CC1=Cc2c(OC)ccc(OC)c2CC1
- T/C (endpoint: mean survival time, dose: 12.5 mg/kg/injection, schedule: Q01DX009 (ip), vehicle: other): 95 % of control
- T/C (endpoint: mean survival time, dose: 25.0 mg/kg/injection, schedule: Q01DX009 (ip), vehicle: other): 106 % of control
- T/C (endpoint: mean survival time, dose: 50.0 mg/kg/injection, schedule: Q01DX009 (ip), vehicle: other): 98 % of control
- T/C (endpoint: mean survival time, dose: 100.0 mg/kg/injection, schedule: Q01DX009 (ip), vehicle: other): 92 % of control
- T/C (endpoint: mean survival time, dose: 200.0 mg/kg/injection, schedule: Q01DX009 (ip), vehicle: other): 88 % of control
